Measured values taken from patent US11357800B2, “Compositions for the treatment of neuropathic pain and sensitization of tumors to chemotherapies” (Henry Ford Health System, priority 2016, dated 2022).
Read-outs that look alike come from different tables or passages of the source.

Columns and labels:
[1] = test system: human colon carcinoma HCT-116; test: Tumor cell viability, MTT assay, HCT-116; assay type: cell-based; settings: read-out: IC50 cytotoxicity of oxaliplatin
Method: (§1) Tumor cell viability was measured using an MTT assay.

[2] = test system: human ovarian carcinoma OVCAR3; test: Tumor cell viability, MTT assay, OVCAR3; assay type: cell-based; settings: read-out: IC50 cytotoxicity of oxaliplatin
Method: as §1

[3] = test system: intraepidermal nerve fibers, sciatic nerve small fibers, DRG neurons; test: Histology and TEM of footpad, sciatic nerve and DRG of tumor bearing mice; assay type: in vivo, mouse
Text: Intraepidermal nerve fibers (IENFs) are sensory nerves that innervate dermis and epidermis. […] Calcitonin gene-related peptide (CGRP) DRG neurons are primary sensory neurons encoding heat and cold perception.

[4] = test system: miR-15b, miR-26a, miR-125b; settings: tumor tissues
[5] = test system: P-gp1, ABCC1, cleaved Caspase 3; settings: tumor tissues
DRG neurons = test: Axonal growth of DRG neurons in microfluidic device
Method: Primary rat DRG neurons were cultured in a microfluidic device that separates distal axons within the axonal compartment from their parent cell bodies within the cell body compartment as shown in FIG. 1 panel A. During 24 h culture, the neurons extended their axons to pass through a 450 nm long microgrooves, leading to only distal axons to grow into the axonal compartment (FIG. 1A). Oxaliplatin at various doses was applied into the axonal compartment (FIG. 1B).

[6] = in vivo; cited from earlier work
[7] = one randomized trial; cited from earlier work
[8] = double immunofluorescent analysis

`O=C1[O][Pt]2([NH][C@@H]3CCCC[C@H]3[NH]2)[O]C1=O` [Oxaliplatin] showed an IC50 ([1]; HCT-116, with CEC derived exosomes (3×10^2 exosomes)) of 6.9 ± 1 µM, an IC50 ([1]; HCT-116, without CEC derived exosomes) of 16.1 ± 2.1 µM and an IC50 ([2]; OVCAR3, with CEC derived exosomes (3×10^2 exosomes)) of 2.3 ± 0.1 µM. For the same compound, the IC50 ([2]; OVCAR3, without CEC derived exosomes) was 6.5 ± 1.1 µM, the “IEFN density assayed by the number of PGP9.5 positive fibers” value ([3]; dermal tissues of tumor bearing mice) was “significantly reduced” and the “diameters of CGRP positive DRG neurons” value [3, 8] was “selectively reduced”. For the same compound, the “diameters of NF200 positive DRG neurons” value [3, 8] was “reduced diameters of CGRP, but not NF200 positive neurons”, the miR-15b level [4] was “significantly reduced” and the miR-26a level [4] was “significantly reduced”. For the same compound, the “protein level of ABCC1” value [5] was “increased”, the “protein level of P-gp1” value [5] was “increased” and the axonal growth inhibited (DRG neurons; oxaliplatin 3.6 nM (reduced concentration, IRF of 2.5)) was 27%. The axonal growth suppressed (DRG neurons; oxaliplatin 9.1 nM (regular dose)) was 50% and the IC50 (DRG neurons; read-out: Half Maximal Inhibitory Concentration, IC50, growth of axons, oxaliplatin applied into the axonal compartment, 24 h) was 0.0091 µM.

In the case of `Cc1c(C)c2c(c(C)c1O)CC[C@@](C)(CCC[C@H](C)CCC[C@H](C)CCCC(C)C)O2` [α-tocopherol], the “antineuropathic effect on oxaliplatin-induced behavioral alterations” value [6] is given as “about 50%”.

For `CNCCC=C1c2ccccc2CCc2ccccc21` [nortriptyline], the “therapy of CIPN symptoms” value [7] is given as “ineffective”.
